Assay results: US20160229835A1, “NOVEL PYRIDYLOXYACETYL TETRAHYDROISOQUINOLINE COMPOUNDS USEFUL AS NAMPT INHIBITORS” (ELI LILLY AND COMPANY, priority 2013, published 2016)

System: A2780 Cancer Cells
Assay: LC-MS Analysis of NAD+ and Carbohydrate Metabolites in A2780 Cancer Cells
Format: cell-based
Conditions: for Metabolite Levels (μM) DHAP / Metabolite Levels (μM) FBP / Metabolite Levels (μM) FP / Metabolite Levels (μM) NAD / Metabolite Levels (μM) SP / Metabolite Levels (μM) HP: A2780 cells, 24 hours
Protocol: The purpose of this assay is to measure effects of NAMPT inhibitors on NAD^+ formation in cancer cells. LC-MS analysis of NAD^+ metabolites: nicotinamide mononucleotide (NMN), NAD^+, reduced nicotinamide adenine dinucleotide (NADH), and nicotinamide adenine dinucleotide phosphate (NADP) is performed on an HPLC system coupled to a Thermo Quantum Ultra triple quadrupole mass spectrometer operated in positive heated electrospray mode with selected reaction monitoring detection. For cell extracts, 50 μL of extract and 10 μL of 10 μM internal standard (IS) solution is transferred to a 96-well plate, dried under nitrogen and reconstituted in 50 μL of water. For tissue extracts, 20 μL of extract and 10 μL of IS solution are dried and reconstituted in 50 μL water. The IS solution contains 10 μM nicotinamide-d4 (C/D/N Isotopes), nicotinic acid-d4 (C/D/N Isotopes), nicotinamide mononucleotide-d4 (prepared by custom synthesis) and nicotinamide 1,N^6-ethenoadenine dinucleotide in methanol. The metabolites are separated on a Waters XBRIDGE™ Amide (2.1×50 mm, 3 μm) with an injection volume of 10 μL and a flow rate of 1 mL/minute using 10 mM ammonium acetate in 95% acetonitrile for mobile phase A and 10 mM ammonium acetate in 50% acetonitrile for mobile phase B. The gradient is as follows: 0 minutes, 0% B; 2.5 minutes, 70% B; 2.51 minutes, 100% B; 2.8 minutes, 100% B; 2.81 minutes, 0% B, 3.6 minutes, 0% B.
The purpose of this assay is to measure effects of NAMPT inhibitors on the levels of metabolites such as glucose-6-phosphate/fructose-6-phosphate/fructose-1-phosphate collectively as hexose phosphate (HP), fructose-1,6-bisphosphate (FBP), glyceraldehyde-3-phosphate (G3P), dihydroxyacetone phosphate (DHAP), 3-phosphoglycerate (3PG), 2-phosphoglycerate (2PG), phosphoenoylpyruvate (PEP), gluconate-6-phosphate (GN6P), xylulose-5-phosphate (X5P), ribulose-5-phosphate (Ru5P), ribose-5-phosphate (R5P), sedoheptulose-7-phosphate/sedoheptulose-1-phosphate collectively as sedoheptulose phosphate (SP), erythrose-4-phosphate (E4P), and α-ketoglutarate (α-KG) derived from glycolysis, the TCA cycle, and the pentose-phosphate pathway in tumor cells. Cells (50,000/well) are grown as described above in 100 μL of Dulbecco's Modified Eagle Medium supplemented with 10% FBS (dialyzed) and 25 mM glucose, and treated with a compound in triplicates in the presence or absence of 10 μM nicotinic acid. After 24 hours of treatment, the growth medium is removed and 200 μL of 80% methanol is added to each well. After incubation at room temperature for 15 minutes, the resulting extracts are transferred to 96-deep-well plates and washed twice with 200 μL of 80% methanol/water. Then, the plates are heat sealed and stored at −80° C., or dried and reconstituted in 100 μL of 25 μM ethylenediaminetetraacetic acid and injected into LC-MS for analysis.
The LC-MS analysis for carbohydrate metabolites is performed as follows. Chromatographic separations are performed with an HPLC system, which is coupled to an AB Sciex triple quadrupole LC-MS mass spectrometer. Analytes with phosphates are analyzed as follows. The samples are dried and reconstituted in ACN/water solutions and are separated on a Phenomenex Luna amino HPLC column (2.1×30 mm 3 μm) under the conditions as described by Yuan et al. (Nature Protocols, 2012, […], 872-881.). The mass spectrometer is operated under negative ESI MRM mode.

CC(C)(O)CS(=O)(=O)Nc1ccc2c(c1)CCN(C(=O)COc1cccnc1)C2 [Example 1, 2-Hydroxy-2-methyl-N-[2-[2-(3-pyridyloxy)acetyl]-3,4-dihydro-1H-isoquinolin-6-yl]propane-1-sulfonamide]
NAD formation (A2780 cancer cells, in words): dose-dependent inhibition
glycolytic intermediates (HP, FBP, and DHAP/G3P) before and at the G3P dehydrogenase step (A2780 cancer cells, in words): dose-dependent increase
intermediates (PEP, and PG) after the G3P dehydrogenase step (A2780 cancer cells, in words): dose-dependent decrease
key intermediates of the pentose phosphate pathway including SP (A2780 cancer cells, in words): increased
Metabolite Levels (μM) DHAP (compound 0.000508 μM): 0.6 µM
Metabolite Levels (μM) FBP (compound 0.000508 μM): 2.5 µM
Metabolite Levels (μM) FP (compound 0.000508 μM): 1.9 µM
Metabolite Levels (μM) NAD (compound 0.000508 μM): 0.331 µM
Metabolite Levels (μM) SP (compound 0.000508 μM): 0.3 µM
Metabolite Levels (μM) DHAP (compound 0.00152 μM): 0.6 µM
Metabolite Levels (μM) FBP (compound 0.00152 μM): 3.0 µM
Metabolite Levels (μM) FP (compound 0.00152 μM): 2.1 µM
Metabolite Levels (μM) NAD (compound 0.00152 μM): 0.244 µM
Metabolite Levels (μM) SP (compound 0.00152 μM): 0.3 µM
Metabolite Levels (μM) DHAP (compound 0.00457 μM): 0.6 µM
Metabolite Levels (μM) FBP (compound 0.00457 μM): 4.1 µM
Metabolite Levels (μM) FP (compound 0.00457 μM): 2.4 µM
Metabolite Levels (μM) NAD (compound 0.00457 μM): 0.089 µM
Metabolite Levels (μM) SP (compound 0.00457 μM): 0.4 µM
Metabolite Levels (μM) DHAP (compound 0.0137 μM): 1.0 µM
Metabolite Levels (μM) FBP (compound 0.0137 μM): 7.2 µM
Metabolite Levels (μM) FP (compound 0.0137 μM): 3.0 µM
Metabolite Levels (μM) NAD (compound 0.0137 μM): 0.027 µM
Metabolite Levels (μM) SP (compound 0.0137 μM): 0.5 µM
Metabolite Levels (μM) DHAP (compound 0.0412 μM): 2.0 µM
Metabolite Levels (μM) FBP (compound 0.0412 μM): 19.3 µM
Metabolite Levels (μM) FP (compound 0.0412 μM): 7.6 µM
Metabolite Levels (μM) NAD (compound 0.0412 μM): 0.014 µM
Metabolite Levels (μM) SP (compound 0.0412 μM): 1.3 µM
Metabolite Levels (μM) DHAP (compound 0.123 μM): 3.8 µM
Metabolite Levels (μM) FBP (compound 0.123 μM): 34.3 µM
Metabolite Levels (μM) FP (compound 0.123 μM): 15.1 µM
Metabolite Levels (μM) NAD (compound 0.123 μM): 0.008 µM
Metabolite Levels (μM) SP (compound 0.123 μM): 2.6 µM
Metabolite Levels (μM) DHAP (compound 0.37 μM): 5.0 µM
Metabolite Levels (μM) FBP (compound 0.37 μM): 40.9 µM
Metabolite Levels (μM) FP (compound 0.37 μM): 17.2 µM
Metabolite Levels (μM) NAD (compound 0.37 μM): 0.010 µM
Metabolite Levels (μM) SP (compound 0.37 μM): 3.2 µM
Metabolite Levels (μM) DHAP (compound 1.111 μM): 5.4 µM
Metabolite Levels (μM) FBP (compound 1.111 μM): 38.6 µM
Metabolite Levels (μM) FP (compound 1.111 μM): 18.0 µM
Metabolite Levels (μM) NAD (compound 1.111 μM): 0.008 µM
Metabolite Levels (μM) SP (compound 1.111 μM): 3.3 µM
Metabolite Levels (μM) DHAP (compound 3.333 μM): 5.2 µM
Metabolite Levels (μM) FBP (compound 3.333 μM): 43.0 µM
Metabolite Levels (μM) FP (compound 3.333 μM): 18.8 µM
Metabolite Levels (μM) NAD (compound 3.333 μM): 0.007 µM
Metabolite Levels (μM) SP (compound 3.333 μM): 3.4 µM
Metabolite Levels (μM) DHAP (compound 10 μM): 5.5 µM
Metabolite Levels (μM) FBP (compound 10 μM): 39.7 µM
Metabolite Levels (μM) FP (compound 10 μM): 17.1 µM
Metabolite Levels (μM) NAD (compound 10 μM): 0.008 µM
Metabolite Levels (μM) SP (compound 10 μM): 2.8 µM

COCCS(=O)(=O)Nc1ccc2c(c1)CCN(C(=O)COc1cccnc1)C2 [Example 2, 2-Methoxy-N-[2-[2-(3-pyridyloxy)acetyl]-3,4-dihydro-1H-isoquinolin-6-yl]ethanesulfonamide]
Metabolite Levels (μM) DHAP (compound 0.000508 μM): 0.5 µM
Metabolite Levels (μM) FBP (compound 0.000508 μM): 1.4 µM
Metabolite Levels (μM) HP (compound 0.000508 μM): 1.6 µM
Metabolite Levels (μM) NAD (compound 0.000508 μM): 0.527 µM
Metabolite Levels (μM) SP (compound 0.000508 μM): 0.2 µM
Metabolite Levels (μM) DHAP (compound 0.00152 μM): 0.9 µM
Metabolite Levels (μM) FBP (compound 0.00152 μM): 1.8 µM
Metabolite Levels (μM) HP (compound 0.00152 μM): 1.6 µM
Metabolite Levels (μM) NAD (compound 0.00152 μM): 0.457 µM
Metabolite Levels (μM) SP (compound 0.00152 μM): 0.2 µM
Metabolite Levels (μM) DHAP (compound 0.00457 μM): 3.2 µM
Metabolite Levels (μM) FBP (compound 0.00457 μM): 2.2 µM
Metabolite Levels (μM) HP (compound 0.00457 μM): 1.6 µM
Metabolite Levels (μM) NAD (compound 0.00457 μM): 0.255 µM
Metabolite Levels (μM) SP (compound 0.00457 μM): 0.2 µM
Metabolite Levels (μM) DHAP (compound 0.0137 μM): 6.3 µM
Metabolite Levels (μM) FBP (compound 0.0137 μM): 3.2 µM
Metabolite Levels (μM) HP (compound 0.0137 μM): 1.9 µM
Metabolite Levels (μM) NAD (compound 0.0137 μM): 0.087 µM
Metabolite Levels (μM) SP (compound 0.0137 μM): 0.3 µM
Metabolite Levels (μM) DHAP (compound 0.0412 μM): 6.5 µM
Metabolite Levels (μM) FBP (compound 0.0412 μM): 6.4 µM
Metabolite Levels (μM) HP (compound 0.0412 μM): 2.8 µM
Metabolite Levels (μM) NAD (compound 0.0412 μM): 0.039 µM
Metabolite Levels (μM) SP (compound 0.0412 μM): 0.5 µM
Metabolite Levels (μM) DHAP (compound 0.123 μM): 7.1 µM
Metabolite Levels (μM) FBP (compound 0.123 μM): 15.5 µM
Metabolite Levels (μM) HP (compound 0.123 μM): 7.2 µM
Metabolite Levels (μM) NAD (compound 0.123 μM): 0.023 µM
Metabolite Levels (μM) SP (compound 0.123 μM): 1.3 µM
Metabolite Levels (μM) DHAP (compound 0.37 μM): 7.1 µM
Metabolite Levels (μM) FBP (compound 0.37 μM): 22.8 µM
Metabolite Levels (μM) HP (compound 0.37 μM): 11.0 µM
Metabolite Levels (μM) NAD (compound 0.37 μM): 0.022 µM
Metabolite Levels (μM) SP (compound 0.37 μM): 2.2 µM
Metabolite Levels (μM) DHAP (compound 1.111 μM): 7.3 µM
Metabolite Levels (μM) FBP (compound 1.111 μM): 24.1 µM
Metabolite Levels (μM) HP (compound 1.111 μM): 11.8 µM
Metabolite Levels (μM) NAD (compound 1.111 μM): 0.017 µM
Metabolite Levels (μM) SP (compound 1.111 μM): 2.5 µM
Metabolite Levels (μM) DHAP (compound 3.333 μM): 7.6 µM
Metabolite Levels (μM) FBP (compound 3.333 μM): 23.4 µM
Metabolite Levels (μM) HP (compound 3.333 μM): 12.8 µM
Metabolite Levels (μM) NAD (compound 3.333 μM): 0.02 µM
Metabolite Levels (μM) SP (compound 3.333 μM): 2.5 µM
Metabolite Levels (μM) DHAP (compound 10 μM): 7.7 µM
Metabolite Levels (μM) FBP (compound 10 μM): 21.5 µM
Metabolite Levels (μM) HP (compound 10 μM): 10.9 µM
Metabolite Levels (μM) NAD (compound 10 μM): 0.02 µM
Metabolite Levels (μM) SP (compound 10 μM): 2.1 µM
